Measured values from ChEMBL document CHEMBL2401712, “Fused thiazolyl alkynes as potent mGlu5 receptor positive allosteric modulators” (Bioorg Med Chem Lett, 2013).

Legend:
Format in all cases: cell-based
[1] = biological target: T1, Metabotropic glutamate receptor 5 (Homo sapiens, UniProt P41594); experiment: Negative allosteric modulation of human mGlu5 receptor expressed in HEK293 cells assessed as inhibition of L-glutamate-induced activity after 1 hr by FLIPR assay
Target sequence in this assay (P41594 whole entry): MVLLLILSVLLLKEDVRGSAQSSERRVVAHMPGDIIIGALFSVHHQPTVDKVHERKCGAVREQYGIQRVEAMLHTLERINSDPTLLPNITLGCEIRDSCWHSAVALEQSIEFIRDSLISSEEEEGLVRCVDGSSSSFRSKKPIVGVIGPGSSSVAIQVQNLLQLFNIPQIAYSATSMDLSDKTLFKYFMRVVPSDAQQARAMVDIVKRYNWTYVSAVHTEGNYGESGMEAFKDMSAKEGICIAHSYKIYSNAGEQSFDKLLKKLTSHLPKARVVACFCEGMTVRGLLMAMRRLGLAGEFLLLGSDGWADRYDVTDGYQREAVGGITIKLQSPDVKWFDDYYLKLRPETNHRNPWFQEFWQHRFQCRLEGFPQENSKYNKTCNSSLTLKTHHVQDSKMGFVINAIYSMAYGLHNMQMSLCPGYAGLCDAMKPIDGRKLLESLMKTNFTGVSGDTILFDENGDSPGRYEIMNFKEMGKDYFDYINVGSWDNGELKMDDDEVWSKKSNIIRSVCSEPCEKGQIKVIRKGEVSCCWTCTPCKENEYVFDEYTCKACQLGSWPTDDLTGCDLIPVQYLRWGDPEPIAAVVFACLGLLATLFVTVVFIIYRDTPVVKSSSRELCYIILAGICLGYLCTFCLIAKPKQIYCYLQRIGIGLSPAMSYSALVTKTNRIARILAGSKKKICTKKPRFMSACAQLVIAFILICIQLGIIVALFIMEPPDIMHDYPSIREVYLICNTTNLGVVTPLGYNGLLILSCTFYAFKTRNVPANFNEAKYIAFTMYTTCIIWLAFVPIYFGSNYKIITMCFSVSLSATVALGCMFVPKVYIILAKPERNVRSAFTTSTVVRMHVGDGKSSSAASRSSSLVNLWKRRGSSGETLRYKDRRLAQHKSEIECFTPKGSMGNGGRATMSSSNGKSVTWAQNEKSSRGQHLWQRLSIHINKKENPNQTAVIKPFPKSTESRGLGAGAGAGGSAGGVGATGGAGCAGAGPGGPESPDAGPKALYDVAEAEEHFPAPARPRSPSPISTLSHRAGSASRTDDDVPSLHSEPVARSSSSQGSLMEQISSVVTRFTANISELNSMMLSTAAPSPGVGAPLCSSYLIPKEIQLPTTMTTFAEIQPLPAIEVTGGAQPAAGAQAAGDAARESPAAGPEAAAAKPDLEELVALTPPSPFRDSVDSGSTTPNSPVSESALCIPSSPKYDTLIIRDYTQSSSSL

[2] = biological target: T1, Metabotropic glutamate receptor 5; experiment: Positive allosteric modulation of human mGlu5 receptor expressed in HEK293 cells assessed as potentiation of L-glutamate-induced activity after 1 hr by FLIPR assay relative to control
Target sequence in this assay (P41594 21-1212 limits assumed): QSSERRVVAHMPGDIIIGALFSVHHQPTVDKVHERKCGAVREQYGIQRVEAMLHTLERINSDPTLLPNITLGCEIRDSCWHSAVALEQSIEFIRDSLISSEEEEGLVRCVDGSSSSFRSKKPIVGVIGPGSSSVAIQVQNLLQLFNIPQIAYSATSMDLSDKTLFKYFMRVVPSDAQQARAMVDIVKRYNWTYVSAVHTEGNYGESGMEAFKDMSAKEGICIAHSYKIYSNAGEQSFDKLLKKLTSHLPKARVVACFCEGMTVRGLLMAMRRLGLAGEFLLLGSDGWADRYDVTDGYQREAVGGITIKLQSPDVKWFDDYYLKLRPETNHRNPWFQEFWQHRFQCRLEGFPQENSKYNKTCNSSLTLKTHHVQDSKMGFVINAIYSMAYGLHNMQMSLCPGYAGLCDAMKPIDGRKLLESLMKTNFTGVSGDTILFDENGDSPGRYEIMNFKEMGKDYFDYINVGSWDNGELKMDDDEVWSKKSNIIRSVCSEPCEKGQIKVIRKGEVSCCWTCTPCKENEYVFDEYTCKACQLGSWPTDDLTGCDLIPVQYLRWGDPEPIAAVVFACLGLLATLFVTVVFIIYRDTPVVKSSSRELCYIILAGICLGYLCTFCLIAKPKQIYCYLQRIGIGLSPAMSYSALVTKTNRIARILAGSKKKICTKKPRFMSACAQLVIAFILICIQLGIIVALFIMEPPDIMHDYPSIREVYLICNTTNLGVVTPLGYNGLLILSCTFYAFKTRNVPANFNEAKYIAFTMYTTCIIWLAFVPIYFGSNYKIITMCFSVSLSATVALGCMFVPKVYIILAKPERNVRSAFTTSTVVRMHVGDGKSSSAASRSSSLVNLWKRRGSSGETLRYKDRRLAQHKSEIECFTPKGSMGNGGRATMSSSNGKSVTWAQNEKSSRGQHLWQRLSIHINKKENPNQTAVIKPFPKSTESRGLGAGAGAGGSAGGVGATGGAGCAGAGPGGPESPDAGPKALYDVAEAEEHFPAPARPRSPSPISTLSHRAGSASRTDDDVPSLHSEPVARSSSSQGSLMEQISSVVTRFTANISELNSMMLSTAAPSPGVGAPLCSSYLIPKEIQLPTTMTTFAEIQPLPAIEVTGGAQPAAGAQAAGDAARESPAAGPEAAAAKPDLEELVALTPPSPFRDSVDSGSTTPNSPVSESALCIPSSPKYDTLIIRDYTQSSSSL

[3] = biological target: T1, Metabotropic glutamate receptor 5; experiment: Positive allosteric modulation of human mGlu5 receptor expressed in HEK293 cells assessed as potentiation of L-glutamate-induced activity after 1 hr by FLIPR assay
Target sequence in this assay (P41594 whole entry): as the sequence (P41594 whole entry) above

[4] = biological target: T1, Metabotropic glutamate receptor 5; experiment: Negative allosteric modulation of human mGlu5 receptor expressed in HEK293 cells assessed as inhibition of L-glutamate-induced activity after 1 hr by FLIPR assay relative to control; set-up: concentration or dose not given beside the values; conditions: concentration not given here
Target sequence in this assay (P41594 21-1212 limits assumed): as the sequence (P41594 21-1212 limits assumed) above

Row | IC50 [1] [nM] | Emax [2] [%] | EC50 [3] [nM] | inhibition [4] [%] | Structure (SMILES)
1 | > 10000 | 44 | > 10000 | – | COc1ccccc1C#Cc1nc2c(s1)C(=O)NCC2
2 | > 10000 | 110 | 150 | – | O=S(=O)(C1CCCCC1)N1Cc2nc(C#Cc3ccccc3)sc2C1
3 | 480 | -17 | > 10000 | 81 | O=S(=O)(C1CCCCC1)N1CCc2nc(C#Cc3ccccc3)sc2C1
4 | > 10000 | 96 | 130 | 45 | O=C(C1CCOC1)N1CCc2nc(C#Cc3ccccc3)sc2C1 (configuration not stated)
5 | 36 | -9 | > 10000 | 78 | O=S(=O)(N1CCCC1)N1CCc2nc(C#Cc3ccccc3)sc2C1
6 | > 10000 | 43 | 640 | -0.2 | COC1CC(C(=O)N2CCc3nc(C#Cc4ccccc4)sc3C2)C1 (configuration not stated)
7 | > 10000 | 310 | 5200 | – | O=C1NCCc2nc(C#Cc3ccc(F)cc3)sc21
8 | > 10000 | 32 | 110 | 28 | CCCCN1CCc2nc(C#Cc3ccccc3)sc2C1
9 | 1200 | -6 | > 10000 | 51 | CCN1CCc2nc(C#Cc3ccccc3)sc2C1
10 | 72 | -2 | > 10000 | 87 | CCN1CCc2nc(C#Cc3cccc(F)c3)sc2C1
11 | > 10000 | 150 | 2.5 | – | O=C1c2sc(C#Cc3ccccc3)nc2CN1C1CCCC1
12 | > 10000 | 120 | 290 | – | O=C(C1CCOCC1)N1CCc2nc(C#Cc3ccccc3)sc2C1
13 | > 10000 | 94 | 26 | -9 | O=C(N1CCc2nc(C#Cc3ccccc3)sc2C1)N1CC(F)(F)C1
14 | 780 | 6 | > 10000 | 86 | O=S(=O)(N1CCCCC1)N1CCc2nc(C#Cc3ccccc3)sc2C1
15 | 34 | -12 | > 10000 | 87 | O=S(=O)(C1CC1)N1CCc2nc(C#Cc3ccccc3)sc2C1
16 | > 10000 | 89 | 250 | – | O=S(=O)(N1CCCCC1)N1Cc2nc(C#Cc3ccccc3)sc2C1
17 | > 10000 | 120 | 2500 | – | O=C1NCCc2nc(C#Cc3cccc(Cl)c3)sc21
18 | > 10000 | 180 | 100 | – | CC(C)CCN1CCc2nc(C#Cc3ccccc3)sc2C1
19 | > 10000 | 70 | 1200 | – | CN1CCC(C(=O)N2CCc3nc(C#Cc4ccccc4)sc3C2)CC1
20 | > 10000 | 310 | 290 | – | O=C1NCCc2nc(C#Cc3cccc(F)c3)sc21
21 | > 10000 | 120 | 75 | – | O=C(N1CCCCC1)N1CCc2nc(C#Cc3ccccc3)sc2C1
22 | > 10000 | 320 | 1500 | – | O=C1NCCc2nc(C#Cc3ccccc3F)sc21
23 | > 10000 | 50 | > 10000 | – | Cc1cccc(C#Cc2nc3c(s2)C(=O)NCC3)c1
24 | > 10000 | 153 | 167 | – | O=C(C1CCCCC1)N1CCc2nc(C#Cc3ccccc3)sc2C1
25 | > 10000 | 243 | 112 | – | O=C1NCCc2nc(C#Cc3ccccc3)sc21
26 | > 10000 | 120 | 51 | – | O=C1NCCc2nc(C#Cc3cccnc3)sc21
27 | > 10000 | 71 | 1600 | – | Cc1cc(C(=O)N2CCc3nc(C#Cc4ccccc4)sc3C2)no1
28 | > 10000 | 160 | 30 | – | O=C(c1cccc(F)c1)N1CCc2nc(C#Cc3ccccc3)sc2C1
29 | > 10000 | 170 | 99 | – | Cc1cccc(C(=O)N2CCc3nc(C#Cc4ccccc4)sc3C2)c1
